“Also recorded” adds a separate entry of the source. *1 amine or outer side, *2 acyl side, *3 side chain or, on linkers, in order; H or OH if unused. Where no end group is shown, it is not given here. [ ]: non-standard residue; d: D form. εLys = N[C@@H](CCCCN[*:1])C(=O)[*:2]
Legend:
[1] = from a solution of silicic acid; cited from earlier work
[2] = Circular dichroism of peptide solutions; type: physicochemical; conditions: for CD spectrum profile: 0.8 mM in 50 mM phosphate buffer pH 7, after 24 h incubation
Experimental: CD spectra were recorded on peptide solutions at 0.8 mM (by weight) in 50 mM phosphate buffer at pH 7. Solutions had been incubated at room temperature for a minimum of 24 h. Scans were performed in 1 nm increments with 3 s scans at 20° C. and averaged over 5 scans.
The CD spectrum of peptide 1 in the A range of 200-250 nm was fitted by use of the novel Beta Structure Selection algorithm with normalized root mean square deviation of 0.018 (A. Micsonai, F. Wien, L. Kernya, Y.-H. Lee, Y. Goto, M. Réfrégiers and J. Kardos, Proc. Natl. Acad. Sci., 2015, 112, E3095-E3103). The algorithm predicts that the secondary or tertiary structure of the peptide consists of approximately 56% random coils, 27% beta-sheets and 17% beta-turns.

[3] = TEM imaging of peptides and peptide-silica mixtures; type: physicochemical; conditions: phosphate buffer, absence of silicic acid
Experimental: Peptide and peptide-silica mixtures suspended in 50 mM phosphate buffer were applied onto carbon coated copper grid and subsequently viewed with Philips CM200 electron microscope operated at 200 kV.

[4] = Silica precipitation (mineralisation) by peptides; conditions: silicic acid 25 mM, peptide 0.5 mg/mL, 50 mM phosphate buffer pH 7, RT
Experimental: The individual members of the peptide library were subjected to silica mineralisation conditions analogous to those used for the R5 peptide (C. C. Lechner and C. F. W. Becker, Chem. Sci., 2012, 3, 3500). Phosphate buffered solution at pH 7 was used as a background for the reaction, and peptides were individually incubated in this buffer for 24 h prior to silica precipitation. White precipitate was observable in all samples within the first five minutes following addition of the silicic acid.
Peptides were dissolved to a final concentration of 0.5 mg/mL in 50 mM potassium phosphate buffer at pH 7.0 and left standing at room temperature overnight. Silicic acid was generated by hydrolysis of 250 mM tetramethoxysilane in 1 mM aqueous HCl for 4 min. Silica precipitation reactions were initiated by addition of silicic acid to peptide solutions to a final concentration of 25 mM. Reactions were incubated at RT for 30 min. Silica precipitates were collected by centrifugation (5 min, 16.873×g) and washed twice with water. […] All precipitations were carried out in triplicates.

[5] = CD 200-250 nm fitted with Beta Structure Selection algorithm

Question: For KRRIL (truncated silaffin peptide I), which “silica precipitation and morphology” value [1] is on record?
Answer: precipitate silica with a random morphology

Question: Which CD spectrum profile [2] does the source give for “RRIIL(εK)RRIL (RRIIL[εLys]RRIL-OH; also: Lys6 bound via its epsilon amine to the preceding Leu (branched)) [Peptide 9]” here?
Answer: profile was similar to that of peptides 1

Question: Which results are given for RRILKRRIL [Peptide 1]?
Answer: CD spectrum profile [2]: random coil conformation; secondary structure: beta-sheets [2, 5]: ~27%; secondary structure: beta-turns [2, 5]: ~17%; secondary structure: random coils [2, 5]: approximately 56%

Question: With SSKKSGSYSGSKGSKRRIL [Peptide R5] as the substance, how does the “silica precipitation and morphology” value [1] read?
Answer: highly efficient in precipitating monodisperse silica particles

Question: Which CD spectrum profile [2] does the source give for rriIKRRIL [Peptide 5] here?
Answer: significantly lower magnitudes than those for peptides 1-4

Question: For rriil(εK)RRIL [Peptide 8], which “diameter of peptide rods or narrow sheets (TEM)” value [3] is on record?
Answer: 80-200 nm

Question: What about the CD spectrum profile [2] of the same substance?
Answer: significantly lower magnitudes than those for peptides 1-4; also recorded: the minimum at 200 nm disappeared and the curve gained a positive character

Question: Which “capacity to precipitate silica” value [4] does the source give for rriil(εK)RRLL [Peptide 66] here?
Answer: still able to precipitate silica

Question: Which CD spectrum profile [2] does the source give for rril(εK)RRIIL [Peptide 7] here?
Answer: significantly lower magnitudes than those for peptides 1-4

Question: With rril(εK)RRIL [Peptide 6] as the substance, how does the CD spectrum profile [2] read?
Answer: significantly lower magnitudes than those for peptides 1-4

Question: With rrilkrril [Peptide 2] as the substance, how does the CD spectrum profile [2] read?
Answer: mirror image of the spectrum of peptide 1

From patent publication US20210106679A1, “Silaffin Silica Particle Adjuvant” (UNIVERSITÄT WIEN, priority 2017, published 2021)
